Measured values taken from patent publication US20210269848A1, “COMPOSITION OF MICROORGANISMS INDICATING DECONTAMINATION” (NOVOLYZE, priority 2018, published 2021).

Columns and labels:
[1] = test system: E. faecium ATCC 8459; assay: Log loss after heat treatment on macadamia; assay type: cell-based; conditions: 3% dye
Method: (§1) “Log loss” refers to the difference between initial viability and viability at a given time.
(§2) The test is performed for the following 3 strains: E. faecium ATCC 8459, P. agglomerans CNCM I-5055 and A. pascens CNCM I-5181.
(§3) Addition of 10% pure lyophilisate of the strains to 5 g of maltodextrin. Vortexing for homogenization. Addition of 3% of dye. Vortexing. Addition of 1% of the dyed strain mixture diluted 1/10 to 5 g of macadamia. Mixing with a sterile spatula. Drying 2 h. Deposition of 0.3 g in Eppendorf tubes then heat treatment of the tubes in a dry bath at 90 and 100° C. for 0, 2, 5, 10 minutes

[2] = test system: A. pascens CNCM I-5181; assay: Log loss after heat treatment on macadamia; assay type: cell-based; conditions: 3% dye
Method: as §1, §2, §3

[3] = test system: P. agglomerans CNCM I-5055; assay: Log loss after heat treatment on macadamia; assay type: cell-based; conditions: 3% dye
Method: as §1, §2, §3

[4] = test system: Enterococcus faecium; assay: Heat resistance (log loss) of E. faecium compositions with brilliant blue FCF at 100° C.; assay type: cell-based; conditions: 3% dye
Method: as §1
Method: The Enterococcus faecium strain in dry form was mixed with an inert support (maltodextrin) and with each dye individually. The subsequent mixture is placed in an Eppendorf tube in a dry bath at a temperature of 100° C. Samples were taken at 2, 5 and 10 min and cell counts were performed on TSA (Trypticase Soy Agar) medium for 24 h at 37° C.
Must: addition of 3% of blue dye powder to 5 mL of fermentation must in a sterile jar. Vortexing for homogenization, distribution in tubes and heat treatment.
Pure: addition of 3% of dye to 5 g of pure lyophilisate in a sterile jar. Vortexing for homogenization, distribution in tubes and heat treatment.
Support: addition of 1% of pure lyophilisate to 5 g of maltodextrin in a sterile jar (1/100 dilution). Vortexing for homogenization, then addition of 3% of dye. Vortexing then distribution in tubes and heat treatment.

[5] = test system: E. faecium ATCC 8459; assay: Log loss after heat treatment on nonfat dried milk NFDM; assay type: cell-based; conditions: 3% dye
Method: as §1, §2
(§4) Addition of 10% of pure lyophilisate of the strains to 5 g of maltodextrin. Vortexing for homogenization. […] Vortexing. Addition of 1% of the dyed strain mixture diluted 1/10 to 5 g NFDM. Vortexing. Deposition of 0.1 g in Eppendorf tubes then heat treatment of the tubes in a dry bath at 90 and 100° C. for 2, 5 and 10 minutes

[6] = test system: A. pascens CNCM I-5181; assay: as above; assay type: cell-based; conditions: 3% dye
Method: as §1, §2, §4

[7] = test system: P. agglomerans CNCM I-5055; assay: as above; assay type: cell-based; conditions: 3% dye
Method: as §1, §2, §4

[8] = test system: indicator microorganisms
[9] = test system: E. faecium ATCC 8459; assay: Log loss after heat treatment on black pepper; assay type: cell-based; conditions: 3% dye
Method: as §1
(§5) The test is performed for the following 3 strains: E. faecium ATCC 8459, P. agglomerans CNCM I-5055 and A. pascens CNCM I-5181
as §3, with “10% of” for “10%”, “Addition of 3% of dye.” left out, “black pepper followed by a spray of wet fixing agent for good adhesion.” for “macadamia.”, “0.2” for “0.3”, “for” for “for 0,”, “5 and” for “5,”

[10] = test system: A. pascens CNCM I-5181; assay: Log loss after heat treatment on black pepper; assay type: cell-based; conditions: 3% dye
Method: as §1, §5
as §3, with “10% of” for “10%”, “Addition of 3% of dye.” left out, “black pepper followed by a spray of wet fixing agent for good adhesion.” for “macadamia.”, “0.2” for “0.3”, “for” for “for 0,”, “5 and” for “5,”

[11] = test system: P. agglomerans CNCM I-5055; assay: Log loss after heat treatment on black pepper; assay type: cell-based; conditions: 3% dye
Method: as §1, §5
as §3, with “10% of” for “10%”, “Addition of 3% of dye.” left out, “black pepper followed by a spray of wet fixing agent for good adhesion.” for “macadamia.”, “0.2” for “0.3”, “for” for “for 0,”, “5 and” for “5,”

With `CCN(Cc1cccc(S(=O)(=O)O)c1)c1ccc(C(=C2C=CC(=[N+](CC)Cc3cccc(S(=O)(=O)O)c3)C=C2)c2ccccc2S(=O)(=O)[O-])cc1` [brilliant blue FCF] the “Log loss at 90° C.” value ([1]; 2 min) was 0.2, the “Log loss at 100° C.” value ([1]; 2 min) was 0.24 and the “Log loss at 90° C.” value ([1]; 5 min) was 0.53. The “Log loss at 100° C.” value ([1]; 5 min) was 0.47, the “Log loss at 90° C.” value ([1]; 10 min) was 1.2 and the “Log loss at 100° C.” value ([1]; 10 min) was 1.24. For the same molecule, the “Log loss at 90° C.” value ([2]; 2 min) was 0.25, the “Log loss at 100° C.” value ([2]; 2 min) was 0.05 and the “Log loss at 90° C.” value ([2]; 5 min) was 0.18. The “Log loss at 100° C.” value ([2]; 5 min) was 0.12, the “Log loss at 90° C.” value ([2]; 10 min) was 0.38 and the “Log loss at 100° C.” value ([2]; 10 min) was 0.6. For the same molecule, the “Log loss at 90° C.” value ([3]; 2 min) was 0.3, the “Log loss at 100° C.” value ([3]; 2 min) was 0.14 and the “Log loss at 90° C.” value ([3]; 5 min) was 0.6. For the same molecule, the “Log loss at 100° C.” value ([3]; 5 min) was 0.15, the “Log loss at 90° C.” value ([3]; 10 min) was 0.14 and the “Log loss at 100° C.” value ([3]; 10 min) was 1.36. For the same molecule, the “Log loss at 100° C.” value ([4]; Must (fermentation must), 2 min) was 1.23, the “Log loss at 100° C.” value ([4]; Must (fermentation must), 5 min) was 1.44 and the “Log loss at 100° C.” value ([4]; Must (fermentation must), 10 min) was 2.16. The “Log loss at 100° C.” value ([4]; Pure (lyophilisate without support), 2 min) was 0.02, the “Log loss at 100° C.” value ([4]; Pure (lyophilisate without support), 5 min) was 0.17 and the “Log loss at 100° C.” value ([4]; Pure (lyophilisate without support), 10 min) was 0.50. The “Log loss at 100° C.” value ([4]; Support (maltodextrin), 2 min) was 0.13, the “Log loss at 100° C.” value ([4]; Support (maltodextrin), 5 min) was 0.94 and the “Log loss at 100° C.” value ([4]; Support (maltodextrin), 10 min) was 1.97. The “Log loss at 90° C.” value ([5]; 2 min) was 0.51, the “Log loss at 100° C.” value ([5]; 2 min) was 0.36 and the “Log loss at 90° C.” value ([5]; 5 min) was 0.36. The “Log loss at 100° C.” value ([5]; 5 min) was 0.59, the “Log loss at 90° C.” value ([5]; 10 min) was 0.46 and the “Log loss at 100° C.” value ([5]; 10 min) was 1.29. For the same molecule, the “Log loss at 90° C.” value ([6]; 2 min) was 0.06, the “Log loss at 100° C.” value ([6]; 2 min) was 0.26 and the “Log loss at 90° C.” value ([6]; 5 min) was 0.46. The “Log loss at 100° C.” value ([6]; 5 min) was 0.35, the “Log loss at 90° C.” value ([6]; 10 min) was 0.62 and the “Log loss at 100° C.” value ([6]; 10 min) was 1.82. The “Log loss at 90° C.” value ([7]; 2 min) was 0.07, the “Log loss at 100° C.” value ([7]; 2 min) was 0.13 and the “Log loss at 90° C.” value ([7]; 5 min) was 0.07. For the same molecule, the “Log loss at 100° C.” value ([7]; 5 min) was 0.67, the “Log loss at 90° C.” value ([7]; 10 min) was 0.37 and the “Log loss at 100° C.” value ([7]; 10 min) was 0.72. For the same molecule, the “effect on viability of the indicator microorganisms” value [8] was “does not affect the viability of the indicator microorganisms”, the “Log loss at 90° C.” value ([9]; 2 min) was 0.31 and the “Log loss at 100° C.” value ([9]; 2 min) was 1.35. For the same molecule, the “Log loss at 90° C.” value ([9]; 5 min) was 0.82, the “Log loss at 100° C.” value ([9]; 5 min) was 1.37 and the “Log loss at 90° C.” value ([9]; 10 min) was 1.46. For the same molecule, the “Log loss at 100° C.” value ([9]; 10 min) was 2.19, the “Log loss at 90° C.” value ([10]; 2 min) was 0.59 and the “Log loss at 100° C.” value ([10]; 2 min) was 0.27. For the same molecule, the “Log loss at 90° C.” value ([10]; 5 min) was 0.76, the “Log loss at 100° C.” value ([10]; 5 min) was 0.64 and the “Log loss at 90° C.” value ([10]; 10 min) was 0.85. For the same molecule, the “Log loss at 100° C.” value ([10]; 10 min) was 0.85, the “Log loss at 90° C.” value ([11]; 2 min) was 1.12 and the “Log loss at 100° C.” value ([11]; 2 min) was 1.26. The “Log loss at 90° C.” value ([11]; 5 min) was 1.6, the “Log loss at 100° C.” value ([11]; 5 min) was 1.45 and the “Log loss at 90° C.” value ([11]; 10 min) was 1.77. For the same molecule, the “Log loss at 100° C.” value ([11]; 10 min) was 2.14.
